One test deals with T1, CDK9/Cyclin T1 (Homo sapiens, UniProt P50750).
T1 construct: purchased Invitrogen
Nature of the test: LanthaScreen Eu Kinase Binding Assay, CDK9/Cyclin T1. Particulars: tracer 236, read-out: Affinity (Kd) CDK9/Cyclin T1. As to the method:
(§1) This protocol describes how the LanthaScreen Eu Kinase Binding Assay was performed to determine dissociation constants (Kd) of compounds of general formula (I) and CDK/Cyclin complexes. The principle behind this assay is based upon the binding and displacement of an Alexa Fluor 647-labeled tracer, which binds to the active site of kinases. Binding of the tracer to the kinase is detected using a Eu-labeled antibody. Simultaneous binding of both the tracer and antibody to the kinase gives rise to a FRET-signal. Binding of an inhibitor to the kinase competes for binding with the tracer, resulting in a loss of FRET.
(§2) The compounds of general formula (I) summarized in Table 1 were diluted from a 10 mM DMSO stock solution 1:10 in a total volume of 15 μL DMSO. This compound predilution was then serial diluted 1:3 over 8 steps in DMSO and briefly spun down. Each compound solution was now diluted 1:33.33 in kinase buffer (HEPES: 20 mM, pH: 8.0; MgCl2: 10 mM; DTT: 1 mM; Brij-35: 0.01%), mixed thoroughly and spun down. For every sample, 5 μL of the diluted compound were mixed with 5 μL tracer working solution (e.g. 60 nM tracer 236 in kinase buffer for CDK2/Cyclin A) and 5 μL CDK/Cyclin/Anti-GST-AB-working solution (e.g. 15 nM CDK2/Cyclin A, 1:250 dilution of Anti-GST-AB in kinase buffer) in a well of a small volume 384 well plate (Corning Incorporated, Corning, N.Y., USA; order no. 3673). […] For positive controls, in each well 5 μL of DMSO working solution (3% DMSO diluted in kinase buffer) was mixed with 5 μL CDK/Cyclin/Anti-GST-AB-working solution: (e.g. 15 nM CDK2/Cyclin A, 1:250 dilution of Anti-GST-AB in kinase buffer) and 5 μL Tracer working solution (e.g. 60 nM Tracer 236 in kinase buffer for CDK2/Cyclin A). Positive and negative controls were calculated from at least 8 different sample wells. The 384 well plates were mixed in a Teleshaker plate mixer (Beckman Coulter, Brea, Calif., USA) at 2000 rpm for 40 sec, and incubated for 1 h at room temperature before reading. The FRET signal was measured at 340 nm excitation, 665 nm and 615 nm emission (for the kinase tracer and LanthaScreen Eu-AB, respectively) with an Envision spectrophotometer (Perkin Elmer, Waltham, Mass., USA) with 50 μs delay and 300 μs integration time. Kd values were determined from the sigmoidal dose response curves with the software Quattro Workflow (Quattro GmbH, Munich, Germany).
For orientation: TR-FRET usually uses a lanthanide donor and a delayed reading to cut background.

In test [1] the target is T2, CDK7/CyclinH/Mat1 (Homo sapiens, UniProt P50613).
T2 construct: purchased Carna Biosciences
T2 sequence (P50613 whole entry): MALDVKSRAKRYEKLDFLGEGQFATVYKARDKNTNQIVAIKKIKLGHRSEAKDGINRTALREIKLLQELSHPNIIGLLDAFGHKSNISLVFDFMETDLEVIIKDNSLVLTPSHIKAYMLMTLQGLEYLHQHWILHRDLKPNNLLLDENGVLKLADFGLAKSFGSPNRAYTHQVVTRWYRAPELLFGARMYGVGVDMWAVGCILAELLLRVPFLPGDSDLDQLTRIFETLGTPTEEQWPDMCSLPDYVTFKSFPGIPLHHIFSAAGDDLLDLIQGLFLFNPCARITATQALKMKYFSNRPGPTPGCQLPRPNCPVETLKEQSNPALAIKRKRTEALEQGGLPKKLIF
T2 sequence (P51946 whole entry partner): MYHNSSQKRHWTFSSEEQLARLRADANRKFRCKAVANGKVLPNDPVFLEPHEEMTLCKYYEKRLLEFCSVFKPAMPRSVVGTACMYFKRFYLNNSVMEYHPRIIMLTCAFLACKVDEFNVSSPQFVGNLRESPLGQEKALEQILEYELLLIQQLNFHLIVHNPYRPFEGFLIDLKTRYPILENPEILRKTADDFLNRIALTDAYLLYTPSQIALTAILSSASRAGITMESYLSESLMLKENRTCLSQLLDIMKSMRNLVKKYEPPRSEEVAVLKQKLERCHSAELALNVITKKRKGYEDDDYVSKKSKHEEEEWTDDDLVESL
T2 sequence (P51948 whole entry partner): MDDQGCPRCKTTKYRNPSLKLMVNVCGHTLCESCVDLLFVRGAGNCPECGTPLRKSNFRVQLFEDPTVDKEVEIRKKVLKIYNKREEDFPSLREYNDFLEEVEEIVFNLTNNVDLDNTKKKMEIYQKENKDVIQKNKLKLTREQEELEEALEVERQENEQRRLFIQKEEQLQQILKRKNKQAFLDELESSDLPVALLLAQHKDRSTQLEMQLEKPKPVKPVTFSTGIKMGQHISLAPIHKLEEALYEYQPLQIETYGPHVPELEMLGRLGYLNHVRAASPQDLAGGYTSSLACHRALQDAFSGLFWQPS
Put plainly: LanthaScreen Eu Kinase Binding Assay, CDK7. To be noted: tracer 236, read-out: Affinity (Kd) CDK7. As to the method:
as §1, §2

Test [2] has as its target T3, CDK2/CyclinA (Homo sapiens, UniProt P24941).
T3 construct: purchased Proqinase
Put plainly: Lance Ultra KinaSelect Assay, CDK2. To be noted: ATP 3 μM, read-out: Inhibition (IC50) CDK2. Type of test: biochemical. As to the method:
(§3) This protocol describes how the Lance Ultra KinaSelect Assay was performed to determine half maximal inhibitory concentration (IC50) of compounds of general formula (I) and CDK/Cyclin complexes. The principle behind this enzymatic assay is based upon the phosphorylation of the ULight-Peptide Substrat. It is detected by using a specific EU-labeled anti-phospho peptide antibody. The binding of the Eu-labeled anti-phospho peptide antibody to the phosphorylated U Light labeled peptide gives rise to a FRET-signal. Binding of an inhibitor to the kinase prevents phosphorylation of the ULight-MBP Substrat, resulting in a loss of FRET.
(§4) The compounds of general formula (I) summarized in Table 5 were diluted from a 10 mM DMSO stock solution 1:10 in a total volume of 15 μL DMSO. This compound predilution was then serial diluted 1:3 over 8 steps in DMSO and briefly spun down. Each compound solution was now diluted 1:20 in Enzymatic Buffer (HEPES: 50 mM, pH: 7.5; MgCl2: 10 mM; EGTA: 1 mM; DTT: 2 mM; Tween-20: 0.01%), mixed thoroughly and spun down. For every sample, 2 μL of the diluted compound were mixed with 6 μL CDK/Cyclin/Substrat solution and […] in a well of a small volume 384 well plate (Corning Incorporated, Corning, N.Y., USA; order no. 3673). […] For positive controls, in each well 2 μL of DMSO solution (1% final DMSO assay concentration) was mixed with 6 μL CDK/Cyclin/Substrat (appropriate final concentration see Table 3) and 2 μL Tracer ATP solution (appropriate final concentration see Table 3). Positive and negative controls were calculated from at least 8 different sample wells. The 384 well plates were mixed in a Teleshaker plate mixer (Beckman Coulter, Brea, Calif., USA) at 2000 rpm for 40 sec, and incubated for 1 h at room temperature. Before reading, 10 μL detection buffer (Lance Detection Buffer 1×; EDTA: […]; Eu-Anti-P-MBP: see Table 3) was added. The FRET signal was measured at 340 nm excitation, 665 nm and 615 nm emission (for the kinase tracer and LanthaScreen Eu-AB, respectively) with an Envision spectrophotometer (Perkin Elmer, Waltham, Mass., USA) with 50 μs delay and 300 μs integration time. IC50 values were determined from the sigmoidal dose response curves with the software Quattro Workflow (Quattro GmbH, Munich, Germany).

Test [3] addresses T2, CDK7/CyclinH/Mat1. Nature of the test: Lance Ultra KinaSelect Assay, CDK7. Type of test: biochemical. To be noted: ATP 25 μM, read-out: Inhibition (IC50) CDK7. As to the method:
as §3, §4

Test [4] has as its target T3, CDK2/CyclinA. Put plainly: LanthaScreen Eu Kinase Binding Assay, CDK2. Particulars: tracer 236, read-out: Affinity (Kd) CDK2. The method, then:
as §1, §2

The target of another test is T4, CDK9 (Homo sapiens, UniProt P50750).
T4 construct: purchased Invitrogen
T4 sequence (P50750 whole entry): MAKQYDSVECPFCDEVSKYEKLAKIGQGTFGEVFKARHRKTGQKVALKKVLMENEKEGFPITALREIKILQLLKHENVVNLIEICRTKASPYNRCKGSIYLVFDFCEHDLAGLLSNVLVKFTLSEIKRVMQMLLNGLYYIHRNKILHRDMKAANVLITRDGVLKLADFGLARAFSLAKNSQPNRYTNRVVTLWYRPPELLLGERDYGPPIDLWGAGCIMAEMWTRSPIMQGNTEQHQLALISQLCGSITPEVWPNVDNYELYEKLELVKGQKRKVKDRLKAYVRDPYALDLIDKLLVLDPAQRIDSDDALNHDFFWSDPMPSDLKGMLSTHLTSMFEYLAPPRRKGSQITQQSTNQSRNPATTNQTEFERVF
Nature of the test: Lance Ultra KinaSelect Assay, CDK9. Type of test: biochemical. Particulars: read-out: Inhibition (IC50) CDK9. As to the method: as §3, §4

The test system of test [5] is RNA Polymerase II Ser2 phosphorylation (cellular CDK9 activity) in HCT-116 cells. Nature of the test: RNA-Polymerase II Ser2 cellular phosphorylation assay. The class given is cell-based. Particulars: Homo sapiens, normalized with tubulin. The method, then: HCT-116 cells (DSMZ, Braunschweig, Germany) were maintained in Mc Coy's cell culture medium+glutamine (PAN Biotech GmbH, Aidenbach, Germany) supplemented with 10% fetal calf serum (PAA Laboratories GmbH, Pasching, Austria) and grown at 37° C., 5% CO2. For the cellular phosphorylation assay, cells were seeded with 2×10^5 cells/well/1 ml in 24-well plates (Greiner Bio—One, Frickenhausen, Germany; catalog #662160). The compounds of general formula (I) summarized in Table 6 were diluted from a 10 mM DMSO stock solution 1:10 in a total volume of 15 μL DMSO. After overnight incubation at 37° C./5% CO2, 1.5 μL of a compound diluted in DMSO was added to each sample well. Wells with cells and 0.15% DMSO in culture medium were used as positive controls, wells without cells and 0.15% DMSO in culture medium were used as negative controls. The cells were incubated with the compounds for 72 h at 37° C./5% CO2. Before lysis, cells were washed with phosphate buffered saline. Phosphorylation of RNA Polymerase II Ser2 and tubulin levels for normalization were analyzed afterwards with the Multi-Array technology (Meso Scale Discovery, Gaithersburg, Md., USA), a combination of antibody coupled electrochemiluminescence detection and patterned arrays. Manufacturer's instructions were followed and all solutions were purchased from Meso Scale Discovery. In brief, cells were lysed by 30 min incubation in CLB1 lysis buffer (Zeptosens, Witterswil, Switzerland; 60 μL per well), and supernatants were cleared by centrifugation. For analysis of RNA Polymerase II Ser2-phosphorylation, lysates were diluted 1:50 with Meso Scale Lysis Buffer supplemented with phosphatase- and protease-inhibitors, and 25 µL of each sample was pipetted in a well of a MSD Multi-Array 96-Well Plate Sector® Imager High Bind Plate (Meso Scale Discovery; catalog #L15XB-3/L11XB-3), and incubated for 2 h at room temperature. […] Meso Scale Tris Wash Buffer supplemented with 3% w/v Meso Scale Blocker A were added per well, then plates were sealed and incubated 1 h with vigorous shaking. Plates were washed with 1× Tris Wash Buffer (10× Meso Scale Wash Buffer diluted 1:10 in destilled water), 25 μL of antibody solution was added (CTD7 3E10 antibody from Helmholtz Zentrum Munich, Germany, diluted 1:100 in Meso Scale Tris Wash Buffer supplemented with 1% w/v Meso Scale Blocker A), and plates were washed three times in 1× Tris Wash Buffer. 25 μL of MSD® SULFO-TAG™ Goat-Anti-Rat-Antibody (Meso Scale Discovery, catalog #R^32AH-1, diluted 1:125 in Tris Wash Buffer with 1% (w/v) blocker A) were added per well, plates were sealed and incubated with vigorous shaking for 1 h at room temperature. Finally, plates were washed three times with Tris Wash Buffer, 150 μl 2× Read Buffer (Meso Scale Discovery) were added per well and plates were analyzed immediately in a Sector Imager from Meso Scale Discovery. For determination of tubulin protein levels, samples were analyzed with the protocol for RNA Polymerase II Ser2-phosphorylation, with an anti-tubulin antibody (rabbit; BIODESIGN International, catalog #T59840R, diluted 1:100) and a MSD® SULFO-TAG™ […] (Meso Scale Discovery, catalog #R^32AH-1, diluted 1:125). RNA Polymerase II Ser2 phosphorylation was normalized with tubulin protein levels, and EC50 values were calculated with the software XLFit (IDBS, Guildford, UK) from 2-fold dilution series comprising 6 concentrations in duplicates.

In test [6] the test system is NF-kappaB reporter gene activation in HEK293 cells. Nature of the test: NF-kappaB reporter assay. Particulars: Homo sapiens, 20 ng/ml TNF alpha, 5 h. The class given is cell-based. The method, then:
Cells were maintained in RPMI cell culture medium+glutamine (PAN Biotech GmbH, Aidenbach, Germany) supplemented with 10% fetal calf serum (PAA Laboratories GmbH, Pasching, Austria) and grown at 37° C., 5% CO2. HEK293 cells grown to 50% confluence were transfected with the Amaxa® Cell Line Nucleofector® Kit V (Lonza, Basel, Switzerland, catalog #VCA-1003). Transfections were performed according to manufacturer's optimized protocol for transfection of HEK293 cells. In brief, 2×10^5 cells were transfected with 5 μg highly purified plasmid DNA. Cells were transfected with a NF-kappa B reporter plasmid (pNFkBluc), pTALluc for control, or pMAXGFP for transfection control. After transfection, cells were taken up in 500 μL RPMI1640 cell culture medium, incubated for 1 h at 37° C., and 4.5 ml DMEM without phenol red were added per transfection. Transfected cells were seeded in 96 well plates (Greiner Bio-One, Frickenhausen, Germany, catalog #655098) with 100 μL cell suspension per well and incubated for 48 h. To each well, 100 μL DMEM with 2× concentrated compound diluted from 10 mM DMSO stocks, or 100 μL DMEM with 0.4% DMSO for control wells, was added. The compounds of general formula (I) summarized in Table 6 were used in this assay. Cells were stimulated with 20 ng/ml TNF alpha, and plates were incubated for 5 h at 37° C./5% CO2. Cell culture supernatants were removed to leave 100 μl medium per well, followed by addition of 100 μl Bright Glo luciferase assay reagent (Promega, Madison, Wis., USA, catalog #E2620), and shaking for 5 minutes in the dark. Luminescence was measured with a Victor Photospectrometer (Perkin Elmer, Waltham, Mass., USA). […], values were calculated with the software Excel Fit (IDBS, Guildford, UK) from 2-fold dilution series comprising at least 10 concentrations in duplicates.

The target in a further test is T5, CDK9/Cyclin K (Homo sapiens, UniProt P50750).
T5 construct: purchased Invitrogen
T5 sequence (P50750 whole entry): as above
T5 sequence (O75909 whole entry partner): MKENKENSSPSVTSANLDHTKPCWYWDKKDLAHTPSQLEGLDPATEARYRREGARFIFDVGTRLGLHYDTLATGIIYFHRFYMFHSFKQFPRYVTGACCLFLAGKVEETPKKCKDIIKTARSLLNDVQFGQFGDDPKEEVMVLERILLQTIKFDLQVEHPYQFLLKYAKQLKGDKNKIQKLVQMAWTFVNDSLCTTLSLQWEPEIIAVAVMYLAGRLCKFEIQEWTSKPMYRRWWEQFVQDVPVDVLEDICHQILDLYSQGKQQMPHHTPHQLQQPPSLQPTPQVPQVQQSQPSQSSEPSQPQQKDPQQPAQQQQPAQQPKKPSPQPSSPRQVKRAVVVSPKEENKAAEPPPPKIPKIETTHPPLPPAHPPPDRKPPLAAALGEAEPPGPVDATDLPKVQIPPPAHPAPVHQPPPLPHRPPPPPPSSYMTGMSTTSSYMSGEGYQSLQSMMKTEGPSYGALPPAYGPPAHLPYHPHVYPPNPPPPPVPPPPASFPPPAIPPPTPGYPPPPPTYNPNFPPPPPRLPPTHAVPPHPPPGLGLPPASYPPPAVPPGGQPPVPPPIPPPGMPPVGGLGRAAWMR
Nature of the test: LanthaScreen Eu Kinase Binding Assay, CDK9/Cyclin K. To be noted: tracer 236, read-out: Affinity (Kd) CDK9/Cyclin K. As to the method:
as §1, §2

For the next test, the target named is T6, CDK8/Cyclin C (Homo sapiens, UniProt P49336).
T6 construct: purchased Invitrogen
T6 sequence (P49336 whole entry): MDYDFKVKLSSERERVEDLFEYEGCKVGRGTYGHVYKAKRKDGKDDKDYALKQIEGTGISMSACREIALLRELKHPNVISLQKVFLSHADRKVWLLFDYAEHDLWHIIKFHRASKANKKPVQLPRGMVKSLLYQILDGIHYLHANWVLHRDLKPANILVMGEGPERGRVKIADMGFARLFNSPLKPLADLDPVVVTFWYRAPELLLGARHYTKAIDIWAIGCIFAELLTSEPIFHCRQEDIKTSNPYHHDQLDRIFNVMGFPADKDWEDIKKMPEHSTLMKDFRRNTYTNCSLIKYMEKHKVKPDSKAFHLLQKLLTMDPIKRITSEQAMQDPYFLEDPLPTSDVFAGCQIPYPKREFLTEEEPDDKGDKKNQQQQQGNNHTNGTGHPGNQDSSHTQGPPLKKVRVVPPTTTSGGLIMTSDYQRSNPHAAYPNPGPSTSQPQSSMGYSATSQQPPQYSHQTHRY
T6 sequence (P24863 whole entry partner): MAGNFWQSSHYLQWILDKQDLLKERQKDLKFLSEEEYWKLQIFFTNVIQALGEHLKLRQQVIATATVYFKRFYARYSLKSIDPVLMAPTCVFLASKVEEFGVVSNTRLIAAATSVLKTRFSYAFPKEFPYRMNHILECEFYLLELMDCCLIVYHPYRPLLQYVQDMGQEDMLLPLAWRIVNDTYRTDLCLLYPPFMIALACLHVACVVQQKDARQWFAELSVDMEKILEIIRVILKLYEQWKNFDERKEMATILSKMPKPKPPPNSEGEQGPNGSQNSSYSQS
Nature of the test: LanthaScreen Eu Kinase Binding Assay, CDK8. Particulars: tracer 236, read-out: Affinity (Kd) CDK8. As to the method:
as §1, §2

pIC50, pKd: −log10 of the molar value. Some results are limits rather than exact numbers.

T1 sequence (P50750 whole entry): as the sequence (P50750 whole entry) above
T1 sequence (O60563 whole entry partner): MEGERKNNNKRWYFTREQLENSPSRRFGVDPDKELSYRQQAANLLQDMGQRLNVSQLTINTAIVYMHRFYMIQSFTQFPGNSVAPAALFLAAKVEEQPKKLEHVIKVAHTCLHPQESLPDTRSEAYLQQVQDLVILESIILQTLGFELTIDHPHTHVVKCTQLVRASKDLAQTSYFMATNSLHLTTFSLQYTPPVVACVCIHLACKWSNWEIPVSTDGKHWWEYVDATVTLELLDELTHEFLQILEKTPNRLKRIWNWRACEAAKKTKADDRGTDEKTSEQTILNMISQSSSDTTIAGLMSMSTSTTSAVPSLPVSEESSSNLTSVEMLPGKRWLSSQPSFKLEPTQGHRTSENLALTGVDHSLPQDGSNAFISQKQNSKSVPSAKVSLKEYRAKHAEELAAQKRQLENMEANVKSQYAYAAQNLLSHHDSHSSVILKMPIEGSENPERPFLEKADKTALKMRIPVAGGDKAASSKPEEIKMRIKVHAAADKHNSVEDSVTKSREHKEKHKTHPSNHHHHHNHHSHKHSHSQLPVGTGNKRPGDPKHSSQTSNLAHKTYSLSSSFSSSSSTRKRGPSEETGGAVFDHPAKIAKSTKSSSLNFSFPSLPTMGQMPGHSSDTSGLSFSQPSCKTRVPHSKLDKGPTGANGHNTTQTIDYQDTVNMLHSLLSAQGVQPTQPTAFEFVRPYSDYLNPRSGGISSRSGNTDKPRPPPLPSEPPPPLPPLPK

Regarding `COc1ccccc1-c1ncnc(Nc2cccc(S(C)(=O)=O)c2)n1` [Compound S1, 4-(2-Methoxyphenyl)-N-(3-(methylsulfonyl)phenyl)-1,3,5-triazin-2-amine], the pKd was 8.16 at CDK9/Cyclin T1, less than 5.00 at CDK7/CyclinH/Mat1 [1] and 6.07 on CDK2/CyclinA [4]. Besides, the pIC50 – broadly, the IC50 on a negative log10 scale, so that one unit is a factor of ten – on CDK2/CyclinA [2] was 5.75; at CDK7/CyclinH/Mat1 [3] it was less than 5.00; on CDK9 it was 7.61.
As for `Nc1ccc(-c2ncnc(Nc3cccc(CS(N)(=O)=O)c3)n2)cn1` [Compound B23, 3-[(4-(6-Aminopyridin-3-yl)-1,3,5-triazin-2-yl)amino]benzenemethanesulfonamide], the pIC50 in test [5] and in test [6] was less than 4.52 each time. The pKd is 7.00 on CDK9/Cyclin T1, less than 5.00 on CDK7/CyclinH/Mat1 [1] and 7.58 on CDK9/Cyclin K.
Regarding `COc1ccc(Cl)cc1-c1ncnc(Nc2cccc(CS(N)(=O)=O)c2)n1` [Compound B7, 3-[(4-(5-Chloro-2-methoxyphenyl)-1,3,5-triazin-2-yl)amino]benzenemethanesulfonamide], the pKd at CDK9/Cyclin T1 was 7.26; on CDK7/CyclinH/Mat1 [1], less than 5.00; at CDK8/Cyclin C, less than 5.00; at CDK9/Cyclin K it was 7.00.
Consider `COc1ccccc1-c1ncnc(Nc2ccc(CS(N)(=O)=O)cc2)n1` [Compound T1, 4-[(4-(2-Methoxyphenyl)-1,3,5-triazin-2-yl)amino]benzenemethanesulfonamide], for which the figures for the pKd on CDK9/Cyclin T1, on CDK7/CyclinH/Mat1 [1] and on CDK2/CyclinA [4] were 7.36, less than 5.00 and 6.63, respectively. Also, the values for the pIC50 at CDK2/CyclinA [2], on CDK7/CyclinH/Mat1 [3] and at CDK9 were 6.59, less than 5.00 and 6.72, respectively.
As for `COc1ccncc1-c1ncnc(Nc2cccc(CS(N)(=O)=O)c2)n1` [Compound B18, 3-[(4-(4-Methoxypyridin-3-yl)-1,3,5-triazin-2-yl)amino]benzenemethanesulfonamide], the pKd on CDK9/Cyclin T1 was 6.98; on CDK7/CyclinH/Mat1 [1] it was less than 5.00; on CDK8/Cyclin C, 5.75; at CDK9/Cyclin K it was 6.52.

These data come from US20130079345A1, “[…] ACTIVE DISUBSTITUTED TRIAZINE DERIVATIVES” (BAYER INTELLECTUAL PROPERTY GMBH, priority 2010, published 2013).
